Drawing on US6670391B2, “Benzopyran derivative and antiallergic agent” (Dainippon Ink and Chemicals, Inc., priority 2001, dated 2003), this text covers inhibition in vivo for 27 compounds.

The test relates to male Hartley guinea pigs actively sensitized with egg-white albumin. Nature of the test: Antiallergic Test due to Antigen-Induced Immediate Type Airway Reaction and Delayed Type Airway Reaction. Format: in vivo. The conditions noted are these: Cavia porcellus, po, 10 mg/kg orally once one hour before induction (prednisolone 10 mg/kg orally twice, 16 hours and 2 hours before). As to the method: Using an ultrasonic nebulizer (NE-U12, manufactured by OMRON Corporation), male Hartley guinea pigs (aged six weeks) were actively sensitized by consecutive 8-day inhalation of a 1 wt % physiological saline of egg-white albumin for 10 minutes a day. After one week passed since the final sensitization, an asthmatic disease state was induced by inhalation of a 2 wt % physiological saline of egg-white albumin for 5 minutes in the same manner. To inhibit the synthesis of endogenous steroid, metyrapone (10 mg/kg) was intravenously administered at 24 hours and one hour before the induction. To inhibit anaphylactic shock, pyrilamine (10 mg/kg) was intraperitoneally administered 30 minutes before inducing the asthmatic reaction.
After inducing the asthmatic reaction, the airway resistance (specific airway resistance Raw) was measured for 1 minute before inducing the asthmatic reaction, and 1 minute, 2 hours, 4 hours, 5 hours, 6 hours, 7 hours, 8 hours, and 23-24 hours after inducing the asthmatic reaction, using an airway resistance measuring apparatus (Pulmos-I, manufactured by M.I.P.S.). An average value of the airway resistance was determined, and an airway resistance increase ratio with respect to the value of the airway resistance before the induction was calculated by the following Equation 1.
Each of the test substances (10 mg/kg) listed in Table 1 was suspended in an aqueous 0.5% methyl cellulose solution, and the suspension was orally administered once one hour before inducing the asthmatic reaction. A positive control substance (prednisolone) was orally administered twice at a dosage of 10 mg/kg 16 hours and 2 hours before inducing the asthmatic reaction. The test was carried out on 8 animals per group.
According to this test procedure, a two-phase increase in airway resistance was observed immediately after inducing the asthmatic reaction and after 4-8 hours passed since inducing the asthmatic reaction. In the present invention, the former increase in airway resistance is referred to as the immediate type asthmatic reaction, while the latter increase in airway resistance is referred to as the delayed type asthmatic reaction. With respect to the evaluation of the drug, for the immediate type asthmatic reaction, the inhibition percentage with respect to the asthmatic reaction inhibiting medium administration group (referring to the group wherein a test drug is not administered after inducing the asthmatic reaction, hereinafter merely referred to as the “medium administration group”) was determined by Equation 2 using the airway resistance increase ratio after one minute gas passed since the induction as an index.
For the delayed type asthmatic reaction, the inhibition percentage with respect to the medium administration group was determined by the following Equation 3 using the area under the curve (AUC4-8) of the airway resistance increase ratio up to 4-8 hours after inducing the asthmatic reaction as an index. As an example, the relationship between the airway resistance increase ratio up to 4-8 hours after inducing the asthmatic reaction of the delayed type asthmatic reaction and time in the medium administration group, the prednisolone administration group, and the compound (216) administration group is shown in FIG. 1. As used herein, the area under the curve showing the relationship between the airway resistance increase ratio and time is (AUC4-8)
Airway resistance increase ratio (%)=(airway resistance after inducing the asthmatic airway resistance−airway resistance before inducing the asthmatic reaction)/(airway resistance before inducing the asthmatic reaction)×100
Inhibition (%)=(1−airway resistance increase ratio after one minute has passed since inducing the asthmatic reaction of the test substance administration group/airway resistance increase ratio after one minute has passed since inducing the asthmatic reaction of the medium administration group)×100 […]

Where [1] appears, read: 1 min, airway resistance increase ratio one minute after induction vs medium administration group, read-out: Inhibition (%) against immediate type allergy.
The mark [2] stands for this setting: AUC4-8 of airway resistance increase ratio 4-8 hours after induction vs medium administration group, read-out: Inhibition (%) against delayed type allergy.

Read-outs that look alike come from different tables or passages of the source.

For the compound `CCCCCCOc1c(O)c2cccc(OCC(=O)O)c2oc1=O` [Compound (368), 3-hexyloxy-4-hydroxy-8-hydroxycarbonylmethoxy-2H-1-benzopyran-2-one], the inhibition in vivo at 10 mg/kg by setting is: under setting [1], 24.8%; under setting [2], 60%.

As to `CCCCCCCCOc1c(O)c2c(OCCO)cccc2oc1=O` [Compound (14), 3-octyloxy-4-hydroxy-5-(2-hydroxyethoxy)-2H-1-benzopyran-2-one], the inhibition in vivo at 10 mg/kg came out at 32.4% under setting [1] and 65.5% under setting [2].

Regarding `CCCCCCOc1c(O)c2cccc(OCCO)c2oc1=O` [Compound (311), 3-hexyloxy-4-hydroxy-8-(2-hydroxyethoxy)-2H-1-benzopyran-2-one], the inhibition in vivo at 10 mg/kg is, setting by setting: under setting [1], 11.9%; under setting [2], 55.4%.

`CCCCCCCCCCOc1cccc2c(OCCCC)c(O)c(=O)oc12` [Comparative Compound (3), 3-hydroxy-4-butoxy-8-decyloxy-2H-1-benzopyran-2-one, reference compound]: the inhibition in vivo at 10 mg/kg stood at 5.2% under setting [1] and 24.3% under setting [2].

Regarding `CCCCCCOc1c(O)c2c(OCCC(O)CO)cccc2oc1=O` (stereo not drawn) [Compound (53), 3-hexyloxy-4-hydroxy-5-(3,4-dihydroxybutoxy)-2H-1-benzopyran-2-one], the inhibition in vivo at 10 mg/kg stood at 19.3% under setting [1] and 59.8% under setting [2].

For `CCCCCCCCOc1c(O)c2cc(OCCO)ccc2oc1=O` [Compound (115), 3-octyloxy-4-hydroxy-6-(2-hydroxyethoxy)-2H-1-benzopyran-2-one], the inhibition in vivo at 10 mg/kg runs as follows: under setting [1], 31.8%; under setting [2], 61.7%.

Regarding `CCCCCCCCOc1c(O)c2ccc(OCC(O)CO)cc2oc1=O` (stereo not drawn) [Compound (249), 3-octyloxy-4-hydroxy-7-(2,3-dihydroxypropyloxy)-2H-1-benzopyran-2-one], the inhibition in vivo at 10 mg/kg by setting is: under setting [1], 28.8%; under setting [2], 63.4%.

With `CCCCCCOc1c(O)c2ccc(OCCC(=O)O)cc2oc1=O` [Compound (288), 3-hexyloxy-4-hydroxy-7-(2-hydroxycarbonylethoxy)-2H-1-benzopyran-2-one], the inhibition in vivo at 10 mg/kg is, setting by setting: under setting [1], 13.4%; under setting [2], 59.1%.

Regarding `CCCCCCCCOc1c(O)c2cccc(OCCC(=O)O)c2oc1=O` [Compound (390), 3-octyloxy-4-hydroxy-8-(2-hydroxycarbonylethoxy)-2H-1-benzopyran-2-one], the inhibition in vivo at 10 mg/kg was found to be 29.7% under setting [1] and 61.1% under setting [2].

With `COc1ccc2c(O)c(O)c(=O)oc2c1` [Comparative Compound (1), 3,4-dihydroxy-7-methoxy-2H-1-benzopyran-2-one, reference compound], the inhibition in vivo at 10 mg/kg was determined as 5.7% under setting [1] and 21.9% under setting [2].

`CCCCCCOc1c(O)c2cc(OCC(O)CO)ccc2oc1=O` (stereo not drawn) [Compound (147), 3-hexyloxy-4-hydroxy-6-(2,3-dihydroxypropyloxy)-2H-1-benzopyran-2-one]: the inhibition in vivo at 10 mg/kg stood at 19.1% under setting [1] and 59.5% under setting [2].

Turning to `CC(C)=CCC/C(C)=C/COc1c(O)c2ccc(OCCO)cc2oc1=O` [Compound (226), 3-geranyloxy-4-hydroxy-7-(2-hydroxyethoxy)-2H-1-benzopyran-2-one], the inhibition in vivo at 10 mg/kg under setting [1] came to 22.8% and the inhibition in vivo at 10 mg/kg under setting [2] was 61.5%.

Regarding `CC(C)=CCC/C(C)=C/COc1c(O)c2c(OCC(=O)O)cccc2oc1=O` [Compound (81), 3-geranyloxy-4-hydroxy-5-hydroxycarbonylmethoxy-2H-1-benzopyran-2-one], the inhibition in vivo at 10 mg/kg under setting [1] amounted to 15.4% and the inhibition in vivo at 10 mg/kg under setting [2] was found to be 54.1%.

As to `CCCCCCOc1c(O)c(=O)oc2cc([C@@H]3O[C@H](CO)[C@@H](O)[C@H](O)[C@H]3O)ccc12` [Comparative Compound (6), 3-hydroxy-4-hexyloxy-7-(β-D-glucopyranosyl)-2H-1-benzopyran-2-one, reference compound], the inhibition in vivo at 10 mg/kg runs as follows: under setting [1], 5.9%; under setting [2], 24.1%.

With `CCCCCCCCCCOc1ccc2c(O)c(OC)c(=O)oc2c1` [Comparative Compound (2), 3-methoxy-4-hydroxy-7-decyloxy-2H-1-benzopyran-2-one, reference compound], the inhibition in vivo at 10 mg/kg worked out at 6.5% under setting [1] and 20.2% under setting [2].

On to `CCCCCCOc1c(O)c2c(OCC(=O)O)cccc2oc1=O` [Compound (65), 3-hexyloxy-4-hydroxy-5-hydroxycarbonylmethoxy-2H-1-benzopyran-2-one], for which the inhibition in vivo at 10 mg/kg under setting [1] came to 21.5% and the inhibition in vivo at 10 mg/kg under setting [2] worked out at 60.2%.

On to `CCCCCCOc1c(O)c2cccc(OCC(O)CO)c2oc1=O` (stereo not drawn) [Compound (349), 3-hexyloxy-4-hydroxy-8-(2,3-dihydroxypropyloxy)-2H-1-benzopyran-2-one], for which the inhibition in vivo at 10 mg/kg reads like this: under setting [1], 12.5%; under setting [2], 57.2%.

Consider `CCCCCCC=COc1c(O)c2cc(OCCCCC(=O)O)ccc2oc1=O` [Compound (202), 3-(1-octenyloxy)-4-hydroxy-6-(4-hydroxycarbonylbutoxy)-2H-1-benzopyran-2-one], for which the inhibition in vivo at 10 mg/kg came out at 19.9% under setting [1] and 57.8% under setting [2].

`CCOc1c(O)c2cc(OCCCCO)ccc2oc1=O` [Compound (137), 3-ethoxy-4-hydroxy-6-(4-hydroxybutoxy)-2H-1-benzopyran-2-one]: the inhibition in vivo at 10 mg/kg by setting is: under setting [1], 8.3%; under setting [2], 58.9%.

Take `C[C@]12C=CC(=O)C=C1CC[C@@H]1[C@@H]2[C@@H](O)C[C@@]2(C)[C@H]1CC[C@]2(O)C(=O)CO` [Prednisolone, prednisolone, reference compound]: the inhibition in vivo at 10 mg/kg under setting [1] was 29% and the inhibition in vivo at 10 mg/kg under setting [2] is 51.4%.

For the compound `COc1ccc2c(O)c([C@@H]3O[C@H](CO)[C@@H](O)[C@H](O)[C@H]3O)c(=O)oc2c1` [Comparative Compound (4), 7-methoxy-4-hydroxy-3-(β-D-glucopyranosyl)-2H-1-benzopyran-2-one, reference compound], the inhibition in vivo at 10 mg/kg under setting [1] came to 4.7% and the inhibition in vivo at 10 mg/kg under setting [2] was found to be 20.5%.

In the case of `CCCCCCOc1c(O)c2c(OCCCCC(=O)O)cccc2oc1=O` [Compound (99), 3-hexyloxy-4-hydroxy-5-(4-hydroxycarbonylbutoxy)-2H-1-benzopyran-2-one], the inhibition in vivo at 10 mg/kg was determined as 14.6% under setting [1] and 61.9% under setting [2].

For `CCCCCCOc1c(O)c2c(OCCCO)cccc2oc1=O` [Compound (29), 3-hexyloxy-4-hydroxy-5-(3-hydroxypropyloxy)-2H-1-benzopyran-2-one], the inhibition in vivo at 10 mg/kg turned out to be 15.8% under setting [1] and 60.9% under setting [2].

Turning to `CCCCOc1ccc2c([C@@H]3O[C@H](CO)[C@@H](O)[C@H](O)[C@H]3O)c(O)c(=O)oc2c1` [Comparative Compound (5), 7-butoxy-3-hydroxy-4-(β-D-glucopyranosyl)-2H-1-benzopyran-2-one, reference compound], the inhibition in vivo at 10 mg/kg runs as follows: under setting [1], 6.8%; under setting [2], 22.4%.

In the case of `CCCCCCOc1c(O)c2cc(OCC(=O)O)ccc2oc1=O` [Compound (166), 3-hexyloxy-4-hydroxy-6-hydroxycarbonylmethoxy-2H-1-benzopyran-2-one], the inhibition in vivo at 10 mg/kg reads like this: under setting [1], 23.5%; under setting [2], 64.1%.

`CCCCCCOc1c(O)c2ccc(OCC(=O)O)cc2oc1=O` [Compound (267), 3-hexyloxy-4-hydroxy-7-hydroxycarbonylmethoxy-2H-1-benzopyran-2-one]: the inhibition in vivo at 10 mg/kg came to 14% under setting [1] and 62.2% under setting [2].

Take `CCCCCCCCOc1c(O)c2ccc(OCCO)cc2oc1=O` [Compound (216), 3-octyloxy-4-hydroxy-7-(2-hydroxyethoxy)-2H-1-benzopyran-2-one]: the inhibition in vivo at 10 mg/kg is, setting by setting: under setting [1], 38.8%; under setting [2], 72.5%.
